Experimental data reported in the Kinase Knowledgebase extract (Sharma et al. 2016).

Target: MAPK14 (UniProt Q16539)
Assay: Inhibition of p38 Kinase Activity
Conditions: not given

Sequence of MAPK14 (Q16539 whole entry, looked up): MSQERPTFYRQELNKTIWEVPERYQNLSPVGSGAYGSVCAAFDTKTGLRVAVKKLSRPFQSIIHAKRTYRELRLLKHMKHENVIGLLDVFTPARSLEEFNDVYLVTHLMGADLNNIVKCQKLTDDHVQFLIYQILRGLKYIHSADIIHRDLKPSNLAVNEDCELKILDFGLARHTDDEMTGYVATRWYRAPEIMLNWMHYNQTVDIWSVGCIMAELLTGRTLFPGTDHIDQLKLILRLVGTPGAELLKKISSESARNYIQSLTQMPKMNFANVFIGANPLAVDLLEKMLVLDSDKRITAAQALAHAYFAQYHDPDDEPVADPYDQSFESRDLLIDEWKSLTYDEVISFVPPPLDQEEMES

With `Fc1ccc(-c2nn3ccccc3c2-c2ccnc(NCCc3cnc[nH]3)n2)cc1` as the molecule, how does the IC50 read?
The IC50 was < 500 nM.

`CC(C)Nc1nccc(-c2c(-c3ccc(F)cc3)nn3cc(C(F)(F)F)ccc23)n1` was tested. Which IC50 did it give?
Its IC50 is < 500 nM.

`Cc1ccc(C)c(Oc2nccc(-c3c(-c4ccc(F)cc4)nn4cc(C(F)(F)F)ccc34)n2)c1` was tested. Which IC50 did it give?
Its IC50 is < 500 nM.

`CCCN1CCN(CCNc2nccc(-c3c(-c4cccc(Cl)c4)nn4cc(C(F)(F)F)ccc34)n2)CC1` was tested. Which IC50 did it give?
The IC50 was 10 to 100 nM.

For `FC(F)(F)c1ccc2c(-c3ccnc(NCCN4CCCCC4)n3)c(-c3cccc(Cl)c3)nn2c1`, which IC50 is on record?
Its IC50 is 100 to 1000 nM.

How did the IC50 turn out when `CN1CCN(CCCNc2nccc(-c3c(-c4ccc(F)cc4)nn4cc(C(F)(F)F)ccc34)n2)CC1` was run?
Its IC50 is 10 to 100 nM.

`FC(F)(F)c1ccc(-c2nn3cc(C(F)(F)F)ccc3c2-c2ccnc(NCCN3CCCC3)n2)cc1` was tested. Which IC50 did it give?
The IC50 was 1000 to 10000 nM.

For `Fc1ccc(-c2nn3cc(C(F)(F)F)ccc3c2-c2ccnc(NCCN3CCCCC3)n2)cc1Cl`, which IC50 is on record?
Its IC50 is 100 to 1000 nM.

`CN(C)CCCNc1nccc(-c2c(-c3cccc(Cl)c3)nn3cc(C(F)(F)F)ccc23)n1` was tested. Which IC50 did it give?
The IC50 was 10 to 100 nM.

How did the IC50 turn out when `CN(C)CCCNc1nccc(-c2c(-c3ccc(C(F)(F)F)cc3)nn3cc(C(F)(F)F)ccc23)n1` was run?
The IC50 was 1000 to 10000 nM.

With `OCCCNc1cc(-c2c(-c3ccc(F)cc3)nn3ccccc23)ccn1` as the molecule, how does the IC50 read?
The IC50 was < 500 nM.

With `CCCN1CCN(CCNc2nccc(-c3c(-c4ccc(F)c(Cl)c4)nn4cc(C(F)(F)F)ccc34)n2)CC1` as the molecule, how does the IC50 read?
The IC50 was 10 to 100 nM.

How did the IC50 turn out when `CCN(CC)CCNc1nccc(-c2c(-c3ccc(C(F)(F)F)cc3)nn3cc(C(F)(F)F)ccc23)n1` was run?
Its IC50 is 1000 to 10000 nM.

With `Fc1ccc(-c2nn3cc(C(F)(F)F)ccc3c2-c2ccnc(NCCN3CCCCCC3)n2)cc1Cl` as the molecule, how does the IC50 read?
Its IC50 is 100 to 1000 nM.

`Fc1ccc(-c2nn3cc(C(F)(F)F)ccc3c2-c2ccnc(NC3CC3)n2)cc1` was tested. Which IC50 did it give?
The IC50 was < 500 nM.

With `FC(F)(F)c1ccc2c(-c3ccnc(NCCCCN4CCCC4)n3)c(-c3cccc(Cl)c3)nn2c1` as the molecule, how does the IC50 read?
The IC50 was 10 to 100 nM.

Which IC50 does the source give for `Fc1ccc(-c2nn3ccccc3c2-c2ccncc2)cc1` here?
The IC50 was < 500 nM.

`OCCCNc1nccc(-c2c(-c3ccc(F)cc3)nn3cc(C(F)(F)F)ccc23)n1` was tested. Which IC50 did it give?
Its IC50 is < 500 nM.

`CC(C)N(CCNc1nccc(-c2c(-c3ccc(F)c(Cl)c3)nn3cc(C(F)(F)F)ccc23)n1)C(C)C` was tested. Which IC50 did it give?
Its IC50 is 100 to 1000 nM.

Which IC50 does the source give for `Fc1ccc(-c2nn3cc(C(F)(F)F)ccc3c2-c2ccnc(NCCCN3CCCCC3)n2)cc1Cl` here?
The IC50 was 100 to 1000 nM.

Which IC50 does the source give for `FC(F)(F)c1ccc(-c2nn3cc(C(F)(F)F)ccc3c2-c2ccnc(NCCN3CCCCC3)n2)cc1` here?
Its IC50 is 1000 to 10000 nM.

For `NC(=O)c1ccc2c(-c3ccnc(NCCCO)n3)c(-c3ccc(F)cc3)nn2c1`, which IC50 is on record?
The IC50 was < 500 nM.

Which IC50 does the source give for `Fc1ccc(-c2nn3ccccc3c2-c2ccnc(NCc3ccc(Cl)cc3)c2)cc1` here?
The IC50 was < 500 nM.

Which IC50 does the source give for `Fc1ccc(-c2nn3cc(C(F)(F)F)ccc3c2-c2ccnc(Oc3ccccc3)n2)cc1` here?
The IC50 was < 500 nM.

Which IC50 does the source give for `FC(F)(F)c1ccc2c(-c3ccnc(NCCCN4CCOCC4)n3)c(-c3cccc(Cl)c3)nn2c1` here?
Its IC50 is 10 to 100 nM.

For `Fc1ccc(-c2nn3ccccc3c2-c2ccnc(NC3CC3)n2)cc1`, which IC50 is on record?
The IC50 was < 500 nM.

For `CSc1nccc(-c2c(-c3ccc(F)cc3)nn3ccccc23)n1`, which IC50 is on record?
The IC50 was < 500 nM.

How did the IC50 turn out when `Nc1nccc(-c2c(-c3ccc(F)cc3)nn3ccccc23)n1` was run?
Its IC50 is < 500 nM.

For `CCCN1CCN(CCNc2nccc(-c3c(-c4ccc(C(F)(F)F)cc4)nn4cc(C(F)(F)F)ccc34)n2)CC1`, which IC50 is on record?
Its IC50 is 1000 to 10000 nM.

Which IC50 does the source give for `Fc1ccc(-c2nn3cc(C(F)(F)F)ccc3c2-c2ccnc(NCCN3CCOCC3)n2)cc1Cl` here?
Its IC50 is 10 to 100 nM.

For `FC(F)(F)c1ccc(-c2nn3cc(C(F)(F)F)ccc3c2-c2ccnc(NCCCN3CCCCC3)n2)cc1`, which IC50 is on record?
Its IC50 is 1000 to 10000 nM.

`N#Cc1ccc2c(-c3ccnc(NC4CC4)n3)c(-c3ccc(F)cc3)nn2c1` was tested. Which IC50 did it give?
The IC50 was < 500 nM.

Which IC50 does the source give for `Fc1ccc(-c2nn3ccccc3c2-c2ccnc(NCc3cccnc3)c2)cc1` here?
The IC50 was < 500 nM.

`CCN(CC)CCCCNc1nccc(-c2c(-c3ccc(F)c(Cl)c3)nn3cc(C(F)(F)F)ccc23)n1` was tested. Which IC50 did it give?
The IC50 was 10 to 100 nM.

For `CCCN(CCC)CCNc1nccc(-c2c(-c3cccc(Cl)c3)nn3cc(C(F)(F)F)ccc23)n1`, which IC50 is on record?
The IC50 was 100 to 1000 nM.

How did the IC50 turn out when `Nc1nccc(-c2c(-c3ccc(F)cc3)nn3cc(C(F)(F)F)ccc23)n1` was run?
Its IC50 is < 500 nM.

`Nc1ncccc1C(=O)OCc1ccn2nc(-c3ccc(F)cc3)c(-c3ccncc3)c2c1` was tested. Which IC50 did it give?
The IC50 was < 500 nM.

For `OCc1ccn2nc(-c3ccc(F)cc3)c(-c3ccncc3)c2c1`, which IC50 is on record?
Its IC50 is < 500 nM.

Which IC50 does the source give for `COc1ccn2nc(-c3ccc(F)cc3)c(-c3ccncc3)c2c1` here?
The IC50 was 500 to 5000 nM.

For `FC(F)(F)c1ccc2c(-c3ccnc(NCCN4CCCCCC4)n3)c(-c3cccc(Cl)c3)nn2c1`, which IC50 is on record?
Its IC50 is 100 to 1000 nM.

How did the IC50 turn out when `Fc1ccc(-c2nn3ccccc3c2-c2ccnc(NCc3ccccn3)n2)cc1` was run?
Its IC50 is < 500 nM.

For `FC(F)(F)c1ccc2c(-c3ccnc(NCCN4CCCC4)n3)c(-c3cccc(Cl)c3)nn2c1`, which IC50 is on record?
Its IC50 is 100 to 1000 nM.

Which IC50 does the source give for `CN(C)CCCNc1nccc(-c2c(-c3ccc(F)cc3)nn3cc(C(F)(F)F)ccc23)n1` here?
The IC50 was 100 to 1000 nM.

With `NC(=O)c1ccc2c(-c3ccnc(NCCCN4CCCCC4)n3)c(-c3ccc(F)cc3)nn2c1` as the molecule, how does the IC50 read?
Its IC50 is < 500 nM.

With `CCN(CC)CCNc1nccc(-c2c(-c3cccc(Cl)c3)nn3cc(C(F)(F)F)ccc23)n1` as the molecule, how does the IC50 read?
Its IC50 is 100 to 1000 nM.

`FC(F)(F)c1ccc(-c2nn3cc(C(F)(F)F)ccc3c2-c2ccnc(NCCCN3CCOCC3)n2)cc1` was tested. Which IC50 did it give?
The IC50 was 1000 to 10000 nM.

With `Fc1ccc(-c2nn3cc(C(F)(F)F)ccc3c2-c2ccnc(NCCCN3CCOCC3)n2)cc1Cl` as the molecule, how does the IC50 read?
Its IC50 is 100 to 1000 nM.

`CN(C)CCCNc1nccc(-c2c(-c3ccc(F)c(Cl)c3)nn3cc(C(F)(F)F)ccc23)n1` was tested. Which IC50 did it give?
The IC50 was 10 to 100 nM.

For `CCCN(CCC)CCNc1nccc(-c2c(-c3ccc(C(F)(F)F)cc3)nn3cc(C(F)(F)F)ccc23)n1`, which IC50 is on record?
The IC50 was 1000 to 10000 nM.

With `FC(F)(F)c1ccc(-c2nn3cc(C(F)(F)F)ccc3c2-c2ccnc(NCCN3CCOCC3)n2)cc1` as the molecule, how does the IC50 read?
The IC50 was 1000 to 10000 nM.

How did the IC50 turn out when `Fc1ccc(-c2nn3ccccc3c2-c2ccncn2)cc1` was run?
Its IC50 is 500 to 5000 nM.

Which IC50 does the source give for `Fc1ccc(-c2nn3cc(C(F)(F)F)ccc3c2-c2ccnc(NCCN3CCCC3)n2)cc1Cl` here?
Its IC50 is 100 to 1000 nM.

For `CN1CCN(CCCNc2nccc(-c3c(-c4ccc(F)c(Cl)c4)nn4cc(C(F)(F)F)ccc34)n2)CC1`, which IC50 is on record?
Its IC50 is 10 to 100 nM.

For `CCN(CC)CCCCNc1nccc(-c2c(-c3cccc(Cl)c3)nn3cc(C(F)(F)F)ccc23)n1`, which IC50 is on record?
The IC50 was 10 to 100 nM.

With `Fc1ccc(-c2nn3cc(C(F)(F)F)ccc3c2-c2ccncc2)cc1` as the molecule, how does the IC50 read?
Its IC50 is < 500 nM.

`CCCCNc1nccc(-c2c(-c3ccc(F)cc3)nn3ccccc23)n1` was tested. Which IC50 did it give?
The IC50 was < 500 nM.

With `NC(=O)c1ccc2c(-c3ccnc(NC4CC4)n3)c(-c3ccc(F)cc3)nn2c1` as the molecule, how does the IC50 read?
The IC50 was < 500 nM.

How did the IC50 turn out when `CCCN(CCC)CCNc1nccc(-c2c(-c3ccc(F)c(Cl)c3)nn3cc(C(F)(F)F)ccc23)n1` was run?
The IC50 was 100 to 1000 nM.

Target: MAPK14 (human) (UniProt Q16539)
Sequence (Q16539 whole entry, looked up): as above
Assay: Inhibition of HFF Cell Proliferation
Conditions: not given

`OCCCNc1cc(-c2c(-c3ccc(F)cc3)nn3ccccc23)ccn1` was tested. Which IC50 did it give?
Its IC50 is > 50000 nM.

Which IC50 does the source give for `Fc1ccc(-c2nn3ccccc3c2-c2ccncc2)cc1` here?
Its IC50 is > 50000 nM.

Which IC50 does the source give for `Fc1ccc(-c2nn3ccccc3c2-c2ccnc(NCc3cccnc3)c2)cc1` here?
Its IC50 is 5000 to 50000 nM.

`Nc1ncccc1C(=O)OCc1ccn2nc(-c3ccc(F)cc3)c(-c3ccncc3)c2c1` was tested. Which IC50 did it give?
The IC50 was > 50000 nM.

Which IC50 does the source give for `Fc1ccc(-c2nn3ccccc3c2-c2ccncn2)cc1` here?
Its IC50 is > 50000 nM.

Target: MAPK14 (human) (UniProt Q16539)
Assay: Inhibition of TNF Release from Human Peripheral Blood Mononuclear Cells
Conditions: pbmc

For `Fc1ccc(-c2nn3ccccc3c2-c2ccnc(NCc3ccc(Cl)cc3)c2)cc1`, which IC50 is on record?
The IC50 was < 500 nM.

How did the IC50 turn out when `NC(=O)c1ccc2c(-c3ccnc(NC4CC4)n3)c(-c3ccc(F)cc3)nn2c1` was run?
The IC50 was < 500 nM.

Test system: MAPK14 (C3H mice)
Assay: Inhibition of LPS Stimulated TNF Production in C3H Mice
Conditions: dose or concentration not given here

`CC(C)Nc1nccc(-c2c(-c3ccc(F)cc3)nn3cc(C(F)(F)F)ccc23)n1` was tested. Which inhibition did it give?
The inhibition was 45%.

`OCCCNc1cc(-c2c(-c3ccc(F)cc3)nn3ccccc23)ccn1` was tested. Which inhibition did it give?
Its inhibition is 45%.

For `Fc1ccc(-c2nn3cc(C(F)(F)F)ccc3c2-c2ccnc(NC3CC3)n2)cc1`, which inhibition is on record?
Its inhibition is 24%.

`Fc1ccc(-c2nn3ccccc3c2-c2ccncc2)cc1` was tested. Which inhibition did it give?
The inhibition was 65%.

With `Fc1ccc(-c2nn3ccccc3c2-c2ccnc(NCc3ccc(Cl)cc3)c2)cc1` as the molecule, how does the inhibition read?
The inhibition was 42%.

For `CSc1nccc(-c2c(-c3ccc(F)cc3)nn3ccccc23)n1`, which inhibition is on record?
Its inhibition is 56%.

Which inhibition does the source give for `Nc1nccc(-c2c(-c3ccc(F)cc3)nn3ccccc23)n1` here?
The inhibition was 62%.

For `N#Cc1ccc2c(-c3ccnc(NC4CC4)n3)c(-c3ccc(F)cc3)nn2c1`, which inhibition is on record?
Its inhibition is 52%.

How did the inhibition turn out when `COc1ccn2nc(-c3ccc(F)cc3)c(-c3ccncc3)c2c1` was run?
Its inhibition is 11%.

With `Fc1ccc(-c2nn3ccccc3c2-c2ccnc(NCc3ccccn3)n2)cc1` as the molecule, how does the inhibition read?
The inhibition was 87%.

Which inhibition does the source give for `Fc1ccc(-c2nn3ccccc3c2-c2ccncn2)cc1` here?
Its inhibition is 67%.

How did the inhibition turn out when `CCCCNc1nccc(-c2c(-c3ccc(F)cc3)nn3ccccc23)n1` was run?
The inhibition was 88%.

How did the inhibition turn out when `NC(=O)c1ccc2c(-c3ccnc(NC4CC4)n3)c(-c3ccc(F)cc3)nn2c1` was run?
The inhibition was 90%.
